Measured values reported in article PMC9204298, “Inhibiting UCH-L5: Rational Design of a Cyclic Ubiquitin-Based Peptide Inhibitor” (Frontiers in Molecular Biosciences, 2022).
Where a SMILES comes first, the peptide text is derived from it. The star is where a group is joined. Cbz = O=C(OCc1ccccc1)*

System: MCF7 cells, level of ubiquitinated substrates
Test: Western blot of ubiquitinated substrates in MCF7 cells
Type: cell-based
Details: control, n = 3, Figures 7A,B
Description: DMSO was used as vehicle control. Following the end of the incubation times, MCF7 cells were harvested using 3X NuPAGE SDS Sample buffer (Invitrogen, Cat# NP0007) containing β-mercaptoethanol and 1x DNAse and sonicated in Bioruptor Pico sonicator (Diagenode) (10-sec pulse on, 10 s pulse off for 10 cycles). After boiling them at 95°C for 10 min, the samples run on 4–12% SDS-PAGE agarose gel using MOPS buffer. Proteins were transferred to the nitrocellulose membrane. Ubiquitinated substrates were detected using a mouse anti-ubiquitin (P4D1) antibody (Santa Cruz, Cat# sc-8017). Mouse anti-β-actin (Sigma-Aldrich, Cat# A5441, in 1:10000 dilution) was used to detect actin as a loading control. 800CW goat anti-mouse IgG (H + L) (Li-COR, Cat# 926–32210, 1:5000) were used as secondary antibodies. The signal was detected using direct imaging by Odyssey® CLx Infrared Imaging System (LI-COR). The experiment was repeated in triplicates. The total amount of ubiquitinated substrates and the actin level was quantified using Licor Image studio densitometry software, and the total level of ubiquitinated substrates was normalized to the actin level.

| SMILES | level of ubiquitinated substrates (MG132 5 µM, 4 h) | level of ubiquitinated substrates (bAP15 1 µM, 3 h) |
| --- | --- | --- |
| CC(C)C[C@@H](C=O)NC(=O)[C@H](CC(C)C)NC(=O)[C@H](CC(C)C)NC(=O)OCc1ccccc1 [MG132] (Cbz-Leu-Leu-Leu-aldehyde) | increased the level of ubiquitinated substrates |  |
| C=CC(=O)N1C/C(=C\c2ccc([N+](=O)[O-])cc2)C(=O)/C(=C/c2ccc([N+](=O)[O-])cc2)C1 [bAP15] |  | increased the level of ubiquitinated substrates |
